Source: patent US20090062401A1, “DECALINE-DERIVED COMPOUNDS AS […] ACTIVE AGENTS” (UNIVERSITAT DORTMUND, priority 2004, published 2009)

The compounds below were run against VHR (Homo sapiens, UniProt P51452) (assay: VHR phosphatase inhibition, general phosphatase assay using para-nitrophenylphosphate). Conditions: read-out: IC50 Target VHR.
Type: biochemical
Source text: Assays protocols for the other enzymes mentioned herein (MtPTPA, PP1, VHR, PTP1B) are disclosed in Schweizer R A S, Atanasov, G A, Frey B M, and Odermatt A, Mol. Cell. Endocrinol. 2003, 212, 41-49 and Barratte, B., Meijer L., Galaktionov K. & Beach D, Anticancer Res. 1992, 12, 873-880. For determination of the phosphatase activity, a general phosphatase assay using para-nitrophenylphosphate was applied.

Sequence of VHR (P51452 whole entry, species assumed): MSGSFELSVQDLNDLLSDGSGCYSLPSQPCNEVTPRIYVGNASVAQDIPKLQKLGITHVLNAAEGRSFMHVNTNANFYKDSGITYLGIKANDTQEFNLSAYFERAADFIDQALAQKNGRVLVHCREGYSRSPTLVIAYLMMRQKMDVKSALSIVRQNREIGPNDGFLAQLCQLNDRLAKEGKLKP

| Structure (SMILES) | IC50 [µM] |
| --- | --- |
| CC1=C2CCC[C@H](O)[C@@]2(C)C/C(=C\c2ccc(Cl)cc2)C1=O [Compound 7, (3E,4aS,5S)-3-(4-Chlorobenzyliden)-4,4a,5,6,7,8-hexahydro-5-hydroxy-1,4a-dimethylnaphthalen-2(3H)-one] | 10 to 50 |
| CCCCCCCCc1ccc(/C=C2\C[C@@]3(C)C(=C(C)C2=O)CCC[C@@H]3O)c(C)c1 [Compound 20, (3E,4aS,5S)-3-(2-Methyl-4-octyl-benzyliden)-4,4a,5,6,7,8-hexahydro-5-hydroxy-1,4a-dimethyl-naphthalen-2(3H)-one] | 10 to 50 |
| C=C(C)[C@H]1CC=C(/C=C2\C[C@@]3(C)C(=CC2=O)CCC[C@@H]3O)CC1 [Compound 286, (3E,4aS,5S)-4,4a,5,6,7,8-Hexahydro-5-hydroxy-4a-methyl-3-{[(R)-4-(prop-1-en-2-yl)cyclohex-1-enyl]methylen}naphthalen-2(3H)-one] | 10 to 50 |
| CC1=C2CCC[C@H](O)[C@@]2(C)C/C(=C\c2c(C)c(C)c(C)c(C)c2C)C1=O [Compound 215, (3E,4aS,5S)-3-(2,3,4,5,6-Pentamethylbenzyliden)-4,4a,5,6,7,8-hexahydro-5-hydroxy-1,4a-dimethylnaphthalen-2(3H)-one] | 10 to 50 |
| CCCC(C)/C=C1\C[C@@]2(C)C(=CC1=O)CCC[C@@H]2O (stereo partly drawn) [Compound 225, (3E,4aS,5S)-4,4a,5,6,7,8-Hexahydro-5-hydroxy-4a-methyl-3-(2-methylpentyliden)naphthalen-2(3H)-one] | 10 to 50 |
| COc1cc(OC)c(OC)cc1/C=C1\CCC2[C@H](C)C(O)CC[C@]2(C)C1=O (stereo partly drawn) [Compound 267, (E,5S,8aS)-2-(2,4,5-Trimethoxy-benzyliden)-octahydro-6-hydroxy-5,8a-dimethylnaphthalen-1(2H)-one] | 10 to 50 |
| C[C@@H]1C(O)CC[C@]2(C)C(=O)/C(=C/c3ccco3)CCC12 (stereo partly drawn) [Compound 266, (E,5S,8aS)-2-[(Furan-2-yl)methylen]-octahydro-6-hydroxy-5,8a-dimethylnaphthalen-1(2H)-one] | 10 to 50 |
| CC1=C2CCC[C@H](O)[C@@]2(C)C/C(=C\c2c[nH]c3ccccc23)C1=O [Compound 115, (3E,4aS,5S)-3-[(1H-Indol-3-yl)methylen]-4,4a,5,6,7,8-hexahydro-5-hydroxy-1,4a-dimethylnaphthalen-2(3H)-one] | 10 to 50 |
| COc1cc(OC)c(/C=C2\C[C@]3(C)C(=O)CCCC3=C(C)C2=O)c(OC)c1 [Compound 408, (3E,4aS)-5,8a-Dimethyl-7-(2,4,6-trimethoxy-benzylidene)-3,4,8,8a-tetrahydro-2H,7H-naphthalen-1,6-dione] | 10 to 50 |
| CC1(Cc2ccccc2[N+](=O)[O-])C(=O)CC[C@@]2(C)C1CCC[C@@H]2O (stereo partly drawn) [Compound 405, (4aS,5S)-5-Hydroxy-1,4a-dimethyl-1-(2-nitro-benzyl)-octahydro-naphthalen-2-one] | 10 to 50 |
| C=CC[C@@]12C(=CC(=O)/C(=C/C3=CC[C@@H](C(=C)C)CC3)[C@@H]1C)CCC[C@@H]2O [Compound 241] | 10 to 50 |
| C[C@H]1/C(=C\c2ccccc2)C(=O)C=C2CCC[C@H](O)[C@]21C [Compound 203, (3E,4R,4aS,5S)-3-Benzyliden-4,4a,5,6,7,8-hexahydro-5-hydroxy-4,4a-dimethylnaphthalen-2(3H)-one] | 10 to 50 |
| CCOC(=O)CC1(C)C(=O)CC[C@@]2(C)C1CCC[C@@H]2O (stereo partly drawn) [Compound 153, Ethyl-2-[(4aS,5S)-decahydro-5-hydroxy-1,4a-dimethyl-2-oxonaphthalen-1-yl]acetat] | 10 to 50 |
| CC1=C2CCC[C@H](O)[C@@]2(C)C/C(=C\c2ccccc2)C1=O [Compound 18, (3E,4aS,5S)-3-benzylidene-4,4a,5,6,7,8-hexahydro-5-hydroxy-1,4a-dimethylnaphthalen-2(3H)-one] | 10 to 50 |
| CCCCCCC#Cc1ccc(/C=C2\C[C@@]3(Cc4ccccc4)C(=C(C)C2=O)CCC[C@@H]3O)cc1 [Compound 126, (3E,4aS,5S)-3-[4-(Oct-1-inyl)benzyliden]-4a-benzyl-4,4a,5,6,7,8-hexahydro-5-hydroxy-1-methylnaphthalen-2(3H)-one] | 10 to 50 |
| CC1=C2CCC[C@H](O)[C@@]2(C)C/C(=C\c2cc(C)cs2)C1=O [Compound 19, (3E,4aS,5S)-4,4a,5,6,7,8-Hexahydro-5-hydroxy-1,4a-dimethyl-3-[(4-methylthiophen-2-yl)methylen]naphthalen-2(3H)-one] | < 10 |
| CCc1ccc(/C=C2\C[C@@]3(C)C(CCC[C@@H]3O)C(C)C2=O)c(C)c1 (stereo partly drawn) [Compound 89, (E,4aS,5S)-3-(4-Ethyl-2-methylbenzyliden)-octahydro-5-hydroxy-1,4a-dimethylnaphthalen-2(1H)-one] | 10 to 50 |
| CC1=C2CCC[C@H](O)[C@@]2(C)C/C(=C\c2ccc(O)c(O)c2O)C1=O [Compound 107, (3E,4aS,5S)-3-(2,3,4-Trihydroxybenzyliden)-4,4a,5,6,7,8-hexahydro-5-hydroxy-1,4a-dimethylnaphthalen-2(3H)-one] | 10 to 50 |
| CC1(CCc2ccccc2)C(=O)/C(=C/c2ccc(I)cc2)CC2(C)C1CCCC21OCCO1 (stereo not shown) [Compound 402, (7′E)-7′-(4-iodo-benzylidene)-5′,8a′-dimethylhexahydro-5′-(2-phenylethyl)-2′H-spiro[1,3-dioxolane-2,1′-naphthalen]-6′(5′H)-one] | 10 to 50 |
| C[C@]12C/C(=C\c3ccccc3OCc3ccccc3)C(=O)C=C1CCC[C@@H]2O [Compound 223, (3E,4aS,5S)-3-[2-(Benzyloxy)benzyliden]-4,4a,5,6,7,8-hexahydro-5-hydroxy-4a-methylnaphthalen-2(3H)-one] | 10 to 50 |
| CC1=C2CCC[C@H](O)[C@@]2(C)C/C(=C\c2ccoc2)C1=O [Compound 62] | 10 to 50 |
| C[C@]12C/C(=C\c3ccc(C#Cc4ccccc4)cc3)C(=O)C=C1CCC[C@@H]2O [Compound 136, (3E,4aS,5S)-3-[4-(2-Phenylethinyl)benzyliden]-4,4a,5,6,7,8-hexahydro-5-hydroxy-4a-methylnaphthalen-2(3H)-one] | 10 to 50 |
| COc1cc(CC2(C)C(NC3CCCCC3)CC[C@@]3(C)C2CCC[C@@H]3O)cc(OC)c1 (stereo partly drawn) [Compound 146, (1S,8aS)-5-(3,5-Dimethoxybenzyl)-6-(cyclohexylamino)-decahydro-5,8a-dimethylnaphthalen-1-ol] | 10 to 50 |
| CC1C(=O)/C(=C/c2ccccc2OCc2ccccc2)C[C@@]2(C)C1CCC[C@@H]2O (stereo partly drawn) [Compound 190, (E,4aS,5S)-3-[2-(Benzyloxy)-benzyliden]-octahydro-5-hydroxy-1,4a-dimethylnaphthalen-2(1H)-one] | 10 to 50 |
| C=CC[C@@]12C(=CC(=O)/C(=C/c3ccc(C)o3)[C@@H]1C)CCC[C@@H]2O [Compound 242, (3E,4R,4aS,5S)-4a-Allyl-4,4a,5,6,7,8-hexahydro-5-hydroxy-4-methyl-3-[(5-methylfuran-2-yl)methylen]naphthalen-2(3H)-on] | 10 to 50 |
